Results published in patent publication US11130741B2 (Bioimics AB, priority 2016, dated 2021).
Read-outs that look alike come from different tables or passages of the source.

Tests used:
[1] = test system: Staphylococcus aureus subsp. aureus (ATCC29213); assay: MIC, broth microdilution (CLSI), Staphylococcus aureus subsp. aureus ATCC29213; type: cell-based; settings: ATCC29213, Table 15, read-out: S. aureus ("wound") (MIC)
[2] = test system: Escherichia coli (ATCC25922); assay: MIC, broth microdilution (CLSI), Escherichia coli ATCC25922
[3] = ATCC25922, read-out: E. coli MIC, Table 15, NI = No inhibition
[4] = ATCC25922, read-out: E. coli MIC

**Q.** Which results are given for `Cl.Cl.Cl.NCCNCC(=O)CNc1cc(C(F)(F)F)cc2c1Nc1ccc(N3CCCC3)cc1S2` [compound 317, 1-((2-aminoethyl)amino)-3-((7-(pyrrolidin-1-yl)-3-(trifluoromethyl)-10H-phenothiazin-1-yl)amino) propan-2-one hydrochloride]?
**A.** MIC [1]: 64 µg/mL; MIC [2, 3]: 128 µg/mL

**Q.** With `Cl.NCCN1CCC(Nc2cc(C(F)(F)F)cc3c2Nc2ccc(N4CCCC(F)C4)cc2S3)CC1` (stereo not drawn) [compound 318, N-(1-(2-aminoethyl)piperidin-4-yl)-7-(3-fluoro-piperidin-1-yl)-3-(trifluoromethyl)-10H-phenothiazin-1-amine hydrochloride] as the compound, how does the MIC [1] read?
**A.** Its MIC is 8 µg/mL.

**Q.** And the MIC [2, 3]?
**A.** The MIC was 16 µg/mL.

**Q.** Which MIC [1] does the source give for `Cl.FC(F)(F)c1cc(NC2CCN(CCN3CCNCC3)CC2)c2c(c1)Sc1cc(Br)ccc1N2` [compound 319, 7-bromo-N-(1-(2-(piperazin-1-yl)ethyl)piperidin-4-yl)-3-(trifluoromethyl)-10H-phenothiazin-1-amine hydrochloride] here?
**A.** Its MIC is 8 µg/mL.

**Q.** And the MIC [2, 3]?
**A.** Its MIC is 8 µg/mL.

**Q.** For `CC(C)C1CCCN(c2ccc3c(c2)Sc2cc(C(F)(F)F)cc(NC4CCN(CCN)CC4)c2N3)C1.Cl.Cl.Cl` (stereo not drawn) [compound 320, N-(1-(2-aminoethyl)piperidin-4-yl)-7-(3-isopropyl-piperidin-1-yl)-3-(trifluoromethyl)-10H-phenothiazin-1-amine hydrochloride], which MIC [1] is on record?
**A.** The MIC was 4 µg/mL.

**Q.** What about the MIC [2, 3] of the same compound?
**A.** The MIC was 32 µg/mL.

**Q.** What does the source list for `COC1CCN(c2ccc3c(c2)Sc2cc(C(F)(F)F)cc(NC4CCN(CCN)CC4)c2N3)C1.Cl.Cl` (stereo not drawn) [compound 321, N-(1-(2-aminoethyl)piperidin-4-yl)-7-(3-methoxy-pyrrolidin-1-yl)-3-(trifluoromethyl)-10H-phenothiazin-1-amine hydrochloride]?
**A.** MIC [1]: 8 µg/mL; MIC [2, 3]: 32 µg/mL

**Q.** For `Cl.Cl.NCCN1CCC(Nc2cc(C(F)(F)F)cc3c2Nc2ccc(N4CCC5(CCCC5)C4)cc2S3)CC1` [compound 322, N-(1-(2-aminoethyl)piperidin-4-yl)-7-(2-azaspiro [4.4]nonan-2-yl)-3-(trifluoromethyl)-10H-phenothiazin-1-amine hydrochloride], which MIC [1] is on record?
**A.** The MIC was 1 µg/mL.

**Q.** And the MIC [2, 3]?
**A.** The MIC was 4 µg/mL.

**Q.** For `CN(C)CCNCC(=O)CNc1cc(C(F)(F)F)cc2c1Nc1ccc(N3CCCC3)cc1S2.Cl.Cl` [compound 323, 1-((2-(dimethyl-amino)ethyl)amino)-3-((7-(pyrrolidin-1-yl)-3-(trifluoromethyl)-10H-phenothiazin-1-yl)amino) propan-2-one hydrochloride], which MIC [1] is on record?
**A.** The MIC was 128 µg/mL.

**Q.** And the MIC [2, 4]?
**A.** The MIC was over 128 µg/mL.

**Q.** For `Cl.NCCCNc1cc(C(F)(F)F)cc2c1Nc1ccc(N3CCCC3)cc1S2` [compound 324, N1-(7-(pyrrolidin-1-yl)-3-(trifluoromethyl)-10H-phenothiazin-1-yl)propane-1,3-diamine hydrochloride], which MIC [1] is on record?
**A.** Its MIC is 4 µg/mL.

**Q.** And the MIC [2, 3]?
**A.** The MIC was 32 µg/mL.

**Q.** What does the source list for `COC1CCCN(c2ccc3c(c2)Sc2cc(C(F)(F)F)cc(NC4CCN(CCN)CC4)c2N3)C1.Cl` (stereo not drawn) [compound 326, N-(1-(2-aminoethyl)piperidin-4-yl)-7-(3-methoxy-piperidin-1-yl)-3-(trifluoromethyl)-10H-phenothiazin-1-amine hydrochloride]?
**A.** MIC [1]: 8 µg/mL; MIC [2, 3]: 16 µg/mL

**Q.** Which MIC [1] does the source give for `Cl.NCCN1CCC(Nc2cc(C(F)(F)F)cc3c2Nc2ccc(N4CC5CCC4C5)cc2S3)CC1` (stereo not drawn) [compound 327, N-(1-(2-aminoethyl)piperidin-4-yl)-7-(2-azabicyclo [2.2.1]heptan-2-yl)-3-(trifluoromethyl)-10H-phenothiazin-1-amine hydrochloride] here?
**A.** Its MIC is 1 µg/mL.

**Q.** What about the MIC [2, 3] of the same compound?
**A.** Its MIC is 4 µg/mL.

**Q.** With `CC(=O)Nc1cc(C(F)(F)F)cc2c1Nc1ccc(N3CCCC3)cc1S2.Cl` [compound 328, N-(7-(pyrrolidin-1-yl)-3-(trifluoromethyl)-10H-phenothiazin-1-yl)acetamide hydrochloride] as the compound, how does the MIC [1] read?
**A.** Its MIC is 16 µg/mL.

**Q.** And the MIC [2, 3]?
**A.** Its MIC is over 128 µg/mL.

**Q.** For `Cc1cc(NC2CCN(CCN)CC2)c2c(c1)Sc1cc(Br)ccc1N2.Cl` [compound 329, N-(1-(2-aminoethyl)piperidin-4-yl)-7-bromo-3-methyl-10H-phenothiazin-1-amine hydrochloride], which MIC [1] is on record?
**A.** Its MIC is 16 µg/mL.

**Q.** What about the MIC [2, 3] of the same compound?
**A.** Its MIC is 64 µg/mL.

**Q.** Which MIC [1] does the source give for `Cl.FC(F)(F)c1cc(NC2CCN(CCN3CCNCC3)CC2)c2c(c1)Sc1cc(N3CCCC3)ccc1N2` [compound 330, N-(1-(2-(piperazin-1-yl)ethyl)piperidin-4-yl)-7-(pyrrolidin-1-yl)-3-(trifluoromethyl)-10H-phenothiazin-1-amine hydrochloride] here?
**A.** The MIC was 128 µg/mL.

**Q.** And the MIC [2, 4]?
**A.** The MIC was over 128 µg/mL.

**Q.** `Cl.NCCCNc1cc(C(F)(F)F)cc2c1Nc1ccc(Br)cc1S2` [compound 333, N1-(7-bromo-3-(trifluoromethyl)-10H-phenothiazin-1-yl)propane-1,3-diamine hydrochloride] was tested. Which MIC [1] did it give?
**A.** The MIC was 8 µg/mL.

**Q.** And the MIC [2, 3]?
**A.** Its MIC is 16 µg/mL.

**Q.** How did the MIC [1] turn out when `CN(C)c1ccc2c(c1)Sc1cc(C(F)(F)F)cc(NC3CCN(CCN)CC3)c1N2.Cl` [compound 334] was run?
**A.** Its MIC is 4 µg/mL.

**Q.** And the MIC [2, 3]?
**A.** The MIC was 16 µg/mL.

**Q.** Which results are given for `Cl.Cl.NCCN(CCN)CCN1CCC(Nc2cc(C(F)(F)F)cc3c2Nc2ccc(N4CCCC4)cc2S3)CC1` [compound 335, N1-(2-aminoethyl)-N1-(2-(4-((7-(pyrrolidin-1-yl)-3-(trifluoromethyl)-10H-phenothiazin-1-yl)amino)piperidin-1-yl)ethyl)ethane-1,2-diamine hydrochloride]?
**A.** MIC [1]: 4 µg/mL; MIC [2, 3]: 64 µg/mL

**Q.** Which results are given for `Cl.NCCN1CCC(Nc2cc(C(F)(F)F)cc3c2Nc2ccc(N4CCC(C(N)=O)C4)cc2S3)CC1` (stereo not drawn) [compound 338, 1-(9-((1-(2-aminoethyl)piperidin-4-yl)amino)-7-(trifluoromethyl)-10H-phenothiazin-3-yl)pyrrolidine-3-carboxamide hydrochloride]?
**A.** MIC [1]: 4 µg/mL; MIC [2, 3]: 64 µg/mL

**Q.** How did the MIC [1] turn out when `CCN(C)c1ccc2c(c1)Sc1cc(C(F)(F)F)cc(NC3CCN(CCN)CC3)c1N2.Cl.Cl` [compound 339, N1-(1-(2-aminoethyl)piperidin-4-yl)-N7-ethyl-N7-methyl-3-(trifluoromethyl)-10H-phenothiazine-1,7-diamine hydrochloride] was run?
**A.** The MIC was 4 µg/mL.

**Q.** And the MIC [2, 3]?
**A.** Its MIC is 8 µg/mL.

**Q.** With `Cl.NCCN1CCC(Nc2cc(C(F)(F)F)cc3c2Nc2ccc(N4CCC5CCCC54)cc2S3)CC1` (stereo not drawn) [compound 340, N-(1-(2-aminoethyl)piperidin-4-yl)-7-(hexahydro-cyclopenta[b]pyrrol-1(2H)-yl)-3-(trifluoromethyl)-10H-phenothiazin-1-amine hydrochloride] as the compound, how does the MIC [1] read?
**A.** The MIC was 4 µg/mL.

**Q.** What about the MIC [2, 3] of the same compound?
**A.** The MIC was 16 µg/mL.

**Q.** Which MIC [1] does the source give for `CC1CC(C)N(c2ccc3c(c2)Sc2cc(C(F)(F)F)cc(NC4CCN(CCN)CC4)c2N3)C1.Cl.Cl` (stereo not drawn) [compound 341, N-(1-(2-aminoethyl)piperidin-4-yl)-7-(2,4-dimethyl-pyrrolidin-1-yl)-3-(trifluoromethyl)-10H-phenothiazin-1-amine hydrochloride] here?
**A.** The MIC was 1 µg/mL.

**Q.** What about the MIC [2, 3] of the same compound?
**A.** Its MIC is 8 µg/mL.

**Q.** How did the MIC [1] turn out when `Cl.NC1CCCC(CNc2cc(C(F)(F)F)cc3c2Nc2ccc(Br)cc2S3)C1` (stereo not drawn) [compound 343, N-((3-aminocyclohexyl)methyl)-7-bromo-3-(trifluoromethyl)-10H-phenothiazin-1-amine hydrochloride] was run?
**A.** Its MIC is 16 µg/mL.

**Q.** What about the MIC [2, 3] of the same compound?
**A.** The MIC was 64 µg/mL.

**Q.** `Cl.NCCOCCCNc1cc(C(F)(F)F)cc2c1Nc1ccc(Br)cc1S2` [compound 344, N-(3-(2-aminoethoxy)propyl)-7-bromo-3-(trifluoromethyl)-10H-phenothiazin-1-amine hydrochloride] was tested. Which MIC [1] did it give?
**A.** The MIC was 8 µg/mL.

**Q.** What about the MIC [2, 3] of the same compound?
**A.** Its MIC is 16 µg/mL.

**Q.** Which results are given for `Cl.NCCNCCCNc1cc(C(F)(F)F)cc2c1Nc1ccc(N3CCCC3)cc1S2` [compound 345, N1-(2-aminoethyl)-N3-(7-(pyrrolidin-1-yl)-3-(trifluoromethyl)-10H-phenothiazin-1-yl)propane-1,3-diamine hydrochloride]?
**A.** MIC [1]: 4 µg/mL; MIC [2, 3]: 32 µg/mL

**Q.** For `CC1CC(C)CN(c2ccc3c(c2)Sc2cc(C(F)(F)F)cc(NCCCNCCN)c2N3)C1.Cl` (stereo not drawn) [compound 346, N1-(2-aminoethyl)-N3-(7-(3,5-dimethylpiperidin-1-yl)-3-(trifluoromethyl)-10H-phenothiazin-1-yl) propane-1,3-diamine hydrochloride], which MIC [1] is on record?
**A.** The MIC was 4 µg/mL.

**Q.** And the MIC [2, 3]?
**A.** Its MIC is 16 µg/mL.

**Q.** Which MIC [1] does the source give for `Cl.NCCNCCCNc1cc(C(F)(F)F)cc2c1Nc1ccc(N3CC4(CCC4)C3)cc1S2` [compound 347, N1-(7-(2-azaspiro[3.3]heptan-2-yl)-3-(trifluoromethyl)-10H-phenothiazin-1-yl)-N3-(2-aminoethyl) propane-1,3-diamine hydrochloride] here?
**A.** Its MIC is 4 µg/mL.

**Q.** And the MIC [2, 3]?
**A.** Its MIC is 8 µg/mL.

**Q.** What does the source list for `CCN(C)c1ccc2c(c1)Sc1cc(C(F)(F)F)cc(NCCCNCCN)c1N2.Cl.Cl` [compound 348, N1-(3-((2-aminoethyl)amino)propyl)-N7-ethyl-N7-methyl-3-(trifluoromethyl)-10H-phenothiazine-1,7-diamine hydrochloride]?
**A.** MIC [1]: 4 µg/mL; MIC [2, 3]: 32 µg/mL

**Q.** What does the source list for `CC1CC(C)N(c2ccc3c(c2)Sc2cc(C(F)(F)F)cc(NCCCNCCN)c2N3)C1.Cl` (stereo not drawn) [compound 349, N1-(2-aminoethyl)-N3-(7-(2,4-dimethyl-pyrrolidin-1-yl)-3-(trifluoromethyl)-10H-phenothiazin-1-yl)propane-1,3-diamine hydrochloride]?
**A.** MIC [1]: 4 µg/mL; MIC [2, 3]: 16 µg/mL

**Q.** How did the MIC [1] turn out when `Cl.NCCNCCCNc1cc(C(F)(F)F)cc2c1Nc1ccc(N3CC4CCC3C4)cc1S2` (stereo not drawn) [compound 350, N1-(7-(2-azabicyclo[2.2.1]heptan-2-yl)-3-(trifluoromethyl)-10H-phenothiazin-1-yl)-N3-(2-aminoethyl) propane-1,3-diamine hydrochloride] was run?
**A.** Its MIC is 4 µg/mL.

**Q.** What about the MIC [2, 3] of the same compound?
**A.** The MIC was 8 µg/mL.

**Q.** `Cl.NCCNCCCNc1cc(C(F)(F)F)cc2c1Nc1ccc(N3CCC4CCCC43)cc1S2` (stereo not drawn) [compound 351, N1-(2-aminoethyl)-N3-(7-(hexahydro-cyclopenta[b]pyrrol-1(2H)-yl)-3-(trifluoromethyl)-10H-phenothiazin-1-yl)propane-1,3-diamine hydrochloride] was tested. Which MIC [1] did it give?
**A.** The MIC was 4 µg/mL.

**Q.** And the MIC [2, 3]?
**A.** Its MIC is 16 µg/mL.

**Q.** How did the MIC [1] turn out when `Cl.NCCN1CCC(Nc2cc(C(F)(F)F)cc3c2Nc2cc(Br)ccc2S3)CC1` [compound 352, N-(1-(2-aminoethyl)piperidin-4-yl)-8-bromo-3-(trifluoromethyl)-10H-phenothiazin-1-amine hydrochloride] was run?
**A.** Its MIC is 4 µg/mL.

**Q.** And the MIC [2, 3]?
**A.** The MIC was 8 µg/mL.
